Results taken from patent US20020137154A1, “Methods for improving cell growth and alcohol production during fermentation” (priority 2000, published 2002).
Where two headings read alike, the source gives them in different places.

Test system: recombinant Escherichia coli KO11
Assay: Batch fermentation of E. coli KO11 in 1% CSL medium and xylose with nutrient additives: ethanol production and cell growth
Format: cell-based
Conditions: for Ethanol Production Maximum / Ethanol yield / Initial Growth (OD @ 24 h) OD / Maximum Cell Density OD / Maximum Cell Density Time / Volumetric Productivity Average / Volumetric Productivity Maximum: 1% CSL+xylose; for activity at 250 µg/mL / activity at 100 µg/mL / activity at 500 µg/mL: Escherichia coli
[1] = 1% CSL and xylose, 0.25 g/L at the start and after 12 hours
[2] = 3 × 0.25 g/L (start, 12 h, 24 h)

SMILES: CC=O [Acetaldehyde, acetaldehyde]
- ethanol production as compared to the control [1]: highest amount of ethanol production
- initial growth and maximum cell density as compared to a control [1]: greatest initial growth and maximum cell density
- Ethanol Production Maximum (0.1 g/L at start): 29.51 g/L
- Ethanol yield (0.1 g/L at start): 0.304 grams of ethanol/grams of added sugar
- Initial Growth (OD @ 24 h) OD (0.1 g/L at start): 2.25 OD
- Maximum Cell Density OD (0.1 g/L at start): 2.56 OD
- Maximum Cell Density Time (0.1 g/L at start): 48 h
- Volumetric Productivity Average (0.1 g/L at start): 0.307 grams ethanol/(liter)(hour)
- Volumetric Productivity Maximum (0.1 g/L at start): 0.389 grams ethanol/(liter)(hour)
- Ethanol Production Maximum (0.25 g/L at start): 34.45 g/L
- Ethanol yield (0.25 g/L at start): 0.355 grams of ethanol/grams of added sugar
- Initial Growth (OD @ 24 h) OD (0.25 g/L at start): 2.48 OD
- Maximum Cell Density OD (0.25 g/L at start): 3.12 OD
- Maximum Cell Density Time (0.25 g/L at start): 96 h
- Volumetric Productivity Average (0.25 g/L at start): 0.359 grams ethanol/(liter)(hour)
- Volumetric Productivity Maximum (0.25 g/L at start): 0.425 grams ethanol/(liter)(hour)
- Ethanol Production Maximum (0.5 g/L at start): 42.66 g/L
- Ethanol yield (0.5 g/L at start): 0.439 grams of ethanol/grams of added sugar
- Initial Growth (OD @ 24 h) OD (0.5 g/L at start): 2.55 OD
- Maximum Cell Density OD (0.5 g/L at start): 4.31 OD
- Maximum Cell Density Time (0.5 g/L at start): 96 h
- Volumetric Productivity Average (0.5 g/L at start): 0.444 grams ethanol/(liter)(hour)
- Volumetric Productivity Maximum (0.5 g/L at start): 0.623 grams ethanol/(liter)(hour)
- Ethanol Production Maximum (2 × 0.25 g/L (start, 12 h)): 45.57 g/L
- Ethanol yield (2 × 0.25 g/L (start, 12 h)): 0.469 grams of ethanol/grams of added sugar
- Initial Growth (OD @ 24 h) OD (2 × 0.25 g/L (start, 12 h)): 3.36 OD
- Maximum Cell Density OD (2 × 0.25 g/L (start, 12 h)): 4.67 OD
- Maximum Cell Density Time (2 × 0.25 g/L (start, 12 h)): 96 h
- Volumetric Productivity Average (2 × 0.25 g/L (start, 12 h)): 0.475 grams ethanol/(liter)(hour)
- Volumetric Productivity Maximum (2 × 0.25 g/L (start, 12 h)): 0.740 grams ethanol/(liter)(hour)
- Ethanol Production Maximum [2]: 38.21 g/L
- Ethanol yield [2]: 0.393 grams of ethanol/grams of added sugar
- Initial Growth (OD @ 24 h) OD [2]: 3.04 OD
- Maximum Cell Density OD [2]: 4.02 OD
- Maximum Cell Density Time [2]: 48 h
- Volumetric Productivity Average [2]: 0.398 grams ethanol/(liter)(hour)
- Volumetric Productivity Maximum [2]: 0.540 grams ethanol/(liter)(hour)
- activity at 250 µg/mL (12 h, read-out: Ethanol Production Maximum % Control, 1% CSL+xylose, 2 × 0.25 g/L (start, 12 h)): 152%
- activity at 250 µg/mL (12 h, read-out: Maximum Cell Density % Control, 1% CSL+xylose, 2 × 0.25 g/L (start, 12 h)): 186%
- activity at 250 µg/mL (12 h, read-out: Volumetric Productivity Average % Control, 1% CSL+xylose, 2 × 0.25 g/L (start, 12 h)): 152%
- activity at 250 µg/mL (12 h, read-out: Volumetric Productivity Maximum % Control, 1% CSL+xylose, 2 × 0.25 g/L (start, 12 h)): 201%
- activity at 100 µg/mL (24 h, read-out: Initial Growth (OD @ 24 h) % Control, 1% CSL+xylose, 0.1 g/L at start): 110%
- activity at 250 µg/mL (24 h, read-out: Initial Growth (OD @ 24 h) % Control, 1% CSL+xylose, 0.25 g/L at start): 121%
- activity at 500 µg/mL (24 h, read-out: Initial Growth (OD @ 24 h) % Control, 1% CSL+xylose, 0.5 g/L at start): 125%
- activity at 250 µg/mL (24 h, read-out: Initial Growth (OD @ 24 h) % Control, 1% CSL+xylose, 2 × 0.25 g/L (start, 12 h)): 165%
- activity at 250 µg/mL (24 h, read-out: Initial Growth (OD @ 24 h) % Control, 1% CSL+xylose, 3 × 0.25 g/L (start, 12 h, 24 h)): 149%
- activity at 100 µg/mL (read-out: Ethanol Production Maximum % Control, 1% CSL+xylose, 0.1 g/L at start): 98.1%
- activity at 250 µg/mL (read-out: Ethanol Production Maximum % Control, 1% CSL+xylose, 0.25 g/L at start): 115%
- activity at 500 µg/mL (read-out: Ethanol Production Maximum % Control, 1% CSL+xylose, 0.5 g/L at start): 142%
- activity at 250 µg/mL (read-out: Ethanol Production Maximum % Control, 1% CSL+xylose, 3 × 0.25 g/L (start, 12 h, 24 h)): 127%
- activity at 100 µg/mL (read-out: Maximum Cell Density % Control, 1% CSL+xylose, 0.1 g/L at start): 102%
- activity at 250 µg/mL (read-out: Maximum Cell Density % Control, 1% CSL+xylose, 0.25 g/L at start): 124%
- activity at 500 µg/mL (read-out: Maximum Cell Density % Control, 1% CSL+xylose, 0.5 g/L at start): 171%
- activity at 250 µg/mL (read-out: Maximum Cell Density % Control, 1% CSL+xylose, 3 × 0.25 g/L (start, 12 h, 24 h)): 160%
- activity at 100 µg/mL (read-out: Volumetric Productivity Average % Control, 1% CSL+xylose, 0.1 g/L at start): 98.1%
- activity at 250 µg/mL (read-out: Volumetric Productivity Average % Control, 1% CSL+xylose, 0.25 g/L at start): 115%
- activity at 500 µg/mL (read-out: Volumetric Productivity Average % Control, 1% CSL+xylose, 0.5 g/L at start): 142%
- activity at 250 µg/mL (read-out: Volumetric Productivity Average % Control, 1% CSL+xylose, 3 × 0.25 g/L (start, 12 h, 24 h)): 127%
- activity at 100 µg/mL (read-out: Volumetric Productivity Maximum % Control, 1% CSL+xylose, 0.1 g/L at start): 106%
- activity at 250 µg/mL (read-out: Volumetric Productivity Maximum % Control, 1% CSL+xylose, 0.25 g/L at start): 115%
- activity at 500 µg/mL (read-out: Volumetric Productivity Maximum % Control, 1% CSL+xylose, 0.5 g/L at start): 169%
- activity at 250 µg/mL (read-out: Volumetric Productivity Maximum % Control, 1% CSL+xylose, 3 × 0.25 g/L (start, 12 h, 24 h)): 147%
